Experimental data published in ChEMBL document CHEMBL3046513, “Synthesis, characterization, and biological evaluation of some N-aryl hydrazones and their 2,3-disubstituted-4-thiazolidinone derivatives” (Med Chem Res, 2013).
In brackets after ≈: the same amount, converted by molar mass. Activity calls are given as the source filed them. No cut-off for these calls is given here.

How the values were obtained:
Type in all cases: functional
Rattus norvegicus [1] = experiment: Anti-inflammatory activity in Rattus norvegicus (rat) assessed as decrease in carrageenan-induced paw edema at 100 mg/kg, po administered 30 min prior to carrageenan challenge measured after 120 min (reference value: 2.375 +/- 0.1436 mm)
[2] = tested on: Radical scavenging activity; experiment: Antioxidant activity assessed as inhibition of DPPH radical generation at 400 ug/mL after 20 min by spectrophotometric analysis relative to control
Rattus norvegicus [3] = experiment: Anti-inflammatory activity in Rattus norvegicus (rat) assessed as decrease in carrageenan-induced paw edema at 100 mg/kg, po administered 30 min prior to carrageenan challenge measured after 180 min (reference value: 2.275 +/- 0.1181 mm)
Bacillus cereus = experiment: Antibacterial activity against Bacillus cereus assessed as growth inhibition by serial plate dilution method
Staphylococcus aureus = experiment: Antibacterial activity against Staphylococcus aureus ATCC 25923 assessed as growth inhibition by serial plate dilution method
Pseudomonas aeruginosa = experiment: Antibacterial activity against Pseudomonas aeruginosa ATCC 27853 assessed as growth inhibition by serial plate dilution method
Mus musculus [4] = experiment: Analgesic activity in Mus musculus […] albino (mouse) assessed as time taken to tail withdrawl at 100 mg/kg, po administered through intragastric tube after 120 min by tail flick test (reference value: 1.363 +/- 0.1297 secs)
Mus musculus [5] = experiment: Analgesic activity in Mus musculus […] albino (mouse) assessed as time taken to tail withdrawl at 100 mg/kg, po administered through intragastric tube after 180 min by tail flick test (reference value: 1.363 +/- 0.1297 secs)
Mus musculus [6] = experiment: Analgesic activity in Mus musculus […] albino (mouse) assessed as time taken to tail withdrawl at 100 mg/kg, po administered through intragastric tube after 60 min by tail flick test (reference value: 1.363 +/- 0.1297 secs)
Escherichia coli = experiment: Antibacterial activity against Escherichia coli ATCC 25922 assessed as growth inhibition by serial plate dilution method
Rattus norvegicus [7] = experiment: Anti-inflammatory activity in Rattus norvegicus (rat) assessed as decrease in carrageenan-induced paw edema at 100 mg/kg, po administered 30 min prior to carrageenan challenge measured after 60 min (reference value: 2.175 +/- 0.1797 mm)
[8] = tested on: Radical scavenging activity; experiment: Antioxidant activity assessed as inhibition of DPPH radical generation at 800 ug/mL after 20 min by spectrophotometric analysis relative to control
Candida albicans = experiment: Antifungal activity against Candida albicans assessed as growth inhibition by serial plate dilution method
[9] = tested on: Radical scavenging activity; experiment: Antioxidant activity assessed as inhibition of DPPH radical generation at 200 ug/mL after 20 min by spectrophotometric analysis relative to control

| Compound | MIC (Bacillus cereus) [µg/mL] | MIC (Staphylococcus aureus) [µg/mL] | MIC (Pseudomonas aeruginosa) [µg/mL] | MIC (Escherichia coli) [µg/mL] | MIC (Candida albicans) [µg/mL] | Activity (Rattus norvegicus [1]) [mm] | inhibition [2] [%] | Activity (Rattus norvegicus [3]) [mm] | Time (Mus musculus [4]) [s] | Time (Mus musculus [5]) [s] | Time (Mus musculus [6]) [s] | Activity (Rattus norvegicus [7]) [mm] | inhibition [8] [%] | inhibition [9] |
| --- | --- | --- | --- | --- | --- | --- | --- | --- | --- | --- | --- | --- | --- | --- |
| COc1ccc(Br)c(C(=O)NN2C(=O)CSC2c2cccc3cc(OC)ccc23)c1 (stereo not drawn) | 12.5 (≈ 25.6 µM) | 12.5 (≈ 25.6 µM) | 6.25 (≈ 12.8 µM) | 6.25 (≈ 12.8 µM) | 6.25 (≈ 12.8 µM) | 1.89 | 52.4 | 1.98 | 2.214 | 2.53 | 1.954 | 1.515 | 58.3 | 38.3% |
| COc1ccc(Br)c(C(=O)N/N=C\c2ccc(-c3ccccc3)cc2)c1 | 25 (≈ 61.1 µM) | 25 (≈ 61.1 µM) | 6.25 (≈ 15.3 µM) | 25 (≈ 61.1 µM) | 12.5 (≈ 30.5 µM) |  |  |  |  |  |  |  |  |  |
| COc1ccc(Br)c(C(=O)N/N=C\c2ccc(F)cc2)c1 | 6.25 (≈ 17.8 µM) | 6.25 (≈ 17.8 µM) | 6.25 (≈ 17.8 µM) | 12.5 (≈ 35.6 µM) | 12.5 (≈ 35.6 µM) |  |  |  |  |  |  |  |  |  |
| COc1ccc(C2SCC(=O)N2NC(=O)c2cc(OC)ccc2Br)cc1 (stereo not drawn) | 6.25 (≈ 14.3 µM) | 6.25 (≈ 14.3 µM) | 6.25 (≈ 14.3 µM) | 12.5 (≈ 28.6 µM) | 6.25 (≈ 14.3 µM) | 1.75 | 58.2 | 1.875 | 2.575 | 2.513 | 2.388 | 1.6 | 59.5 | 57.5% |
| COc1ccc(Br)c(C(=O)NN2C(=O)CSC2c2ccc([N+](=O)[O-])cc2)c1 (stereo not drawn) | 6.25 (≈ 13.8 µM) | 6.25 (≈ 13.8 µM) | 12.5 (≈ 27.6 µM) | 6.25 (≈ 13.8 µM) | 6.25 (≈ 13.8 µM) | 1.8 | 5.81 | 1.975 | 3.263 | 2.663 | 3.375 | 1.45 | 13 | inactive |
| COc1ccc(Br)c(C(=O)NN2C(=O)CSC2c2ccccc2)c1 (stereo not drawn) | 25 (≈ 61.4 µM) | 25 (≈ 61.4 µM) | 12.5 (≈ 30.7 µM) | 12.5 (≈ 30.7 µM) | 6.25 (≈ 15.3 µM) | 1.65 | 18.1 | 1.75 | 3.563 | 2.425 | 3.675 | 1.575 | 41.6 | 4.3% |
| COc1ccc(Br)c(C(=O)N/N=C/C2=C(Cl)c3ccccc3C(c3ccc(Cl)c(Cl)c3)C2)c1 (stereo not drawn) | 12.5 (≈ 22.1 µM) | 12.5 (≈ 22.1 µM) | 6.25 (≈ 11.1 µM) | 12.5 (≈ 22.1 µM) | 6.25 (≈ 11.1 µM) |  |  |  |  |  |  |  |  |  |
| COc1ccc(Br)c(C(=O)NN2C(=O)CSC2c2ccc(F)cc2)c1 (stereo not drawn) | 6.25 (≈ 14.7 µM) | 12.5 (≈ 29.4 µM) | 12.5 (≈ 29.4 µM) | 6.25 (≈ 14.7 µM) | 6.25 (≈ 14.7 µM) | 2.05 | 51 | 2.2 | 3.421 | 3.241 | 2.923 | 2 | 57.1 | 37.8% |
| CC1(C)S[C@@H]2[C@H](NC(=O)Cc3ccccc3)C(=O)N2[C@H]1C(=O)O [PENICILLIN G] | 0.12 (≈ 0.359 µM) | 0.12 (≈ 0.359 µM) | 0.12 (≈ 0.359 µM) | 0.12 (≈ 0.359 µM) |  |  |  |  |  |  |  |  |  |  |
| COc1ccc(Br)c(C(=O)N/N=C\c2cccnc2)c1 | 6.25 (≈ 18.7 µM) | 6.25 (≈ 18.7 µM) | 6.25 (≈ 18.7 µM) | 6.25 (≈ 18.7 µM) | 3.12 (≈ 9.35 µM) |  |  |  |  |  |  |  |  |  |
| COc1ccc(Br)c(C(=O)N/N=C\c2ccc(O)cc2)c1 | 6.25 (≈ 17.9 µM) | 12.5 (≈ 35.8 µM) | 6.25 (≈ 17.9 µM) | 12.5 (≈ 35.8 µM) | 3.12 (≈ 8.95 µM) |  |  |  |  |  |  |  |  |  |

Continued, in another order:

| MIC (Bacillus cereus) [µg/mL] | MIC (Staphylococcus aureus) [µg/mL] | MIC (Pseudomonas aeruginosa) [µg/mL] | MIC (Escherichia coli) [µg/mL] | MIC (Candida albicans) [µg/mL] | Compound | Activity (Rattus norvegicus [1]) [mm] | inhibition [2] [%] | Activity (Rattus norvegicus [3]) [mm] | Time (Mus musculus [4]) [s] | Time (Mus musculus [5]) [s] | Time (Mus musculus [6]) [s] | Activity (Rattus norvegicus [7]) [mm] | inhibition [8] [%] | inhibition [9] |
| --- | --- | --- | --- | --- | --- | --- | --- | --- | --- | --- | --- | --- | --- | --- |
| 12.5 (≈ 31.8 µM) | 12.5 (≈ 31.8 µM) | 6.25 (≈ 15.9 µM) | 6.25 (≈ 15.9 µM) | 6.25 (≈ 15.9 µM) | COc1ccc(/C=N\NC(=O)c2cc(OC)ccc2Br)c(OC)c1 |  |  |  |  |  |  |  |  |  |
| 12.5 (≈ 36 µM) | 12.5 (≈ 36 µM) | 12.5 (≈ 36 µM) | 6.25 (≈ 18 µM) | 6.25 (≈ 18 µM) | COc1ccc(Br)c(C(=O)N/N=C\c2ccc(C)cc2)c1 |  |  |  |  |  |  |  |  |  |
| 6.25 (≈ 13.4 µM) | 12.5 (≈ 26.7 µM) | 6.25 (≈ 13.4 µM) | 12.5 (≈ 26.7 µM) | 3.12 (≈ 6.69 µM) | COc1ccc(C2SCC(=O)N2NC(=O)c2cc(OC)ccc2Br)c(OC)c1 (stereo not drawn) | 2.15 | 33.2 | 1.9 | 3.075 | 2.388 | 3.175 | 2.125 | 71 | 15.9% |
| 12.5 (≈ 35.8 µM) | 12.5 (≈ 35.8 µM) | 6.25 (≈ 17.9 µM) | 6.25 (≈ 17.9 µM) | 6.25 (≈ 17.9 µM) | COc1ccc(Br)c(C(=O)N/N=C\c2ccccc2O)c1 |  |  |  |  |  |  |  |  |  |
| 6.25 (≈ 15.1 µM) | 6.25 (≈ 15.1 µM) | 12.5 (≈ 30.2 µM) | 12.5 (≈ 30.2 µM) | 12.5 (≈ 30.2 µM) | COc1ccc(Br)c(C(=O)N/N=C\c2cccc3cc(OC)ccc23)c1 |  |  |  |  |  |  |  |  |  |
